Experimental data reported in patent US20250367160A1, “USE OF GUAIJAVERIN IN PREPARATION OF EYE PROTECTION PRODUCT” (Innovation Center of Yangtze River Delta, ZJU, priority 2024, published 2025).

System: ocular apoptotic cells of the zebrafish
Assay: Anti-blue light eye protection efficacy, AO staining of ocular apoptotic cells in zebrafish blue light eye damage model
Assay type: in vivo
Settings: 62.5 μg/mL, aqueous, 28° C., 1 d, n = 10; model group 45833 ± 4825, normal control 12203 ± 1124
Experimental: Wild-type AB zebrafish at 1 dpf were randomly selected and irradiated with blue light after membrane rupture to establish the zebrafish blue light eye damage model. Model zebrafish with desirable development status were selected at 3 dpf and randomly distributed in 6-well plates, with 30 zebrafish in each well (experimental group) were treated. Different concentrations of guaijaverin (see Table 2 for concentrations) were administered aqueously, and lutein at a concentration of 62.5 μg/mL were used as a positive control, while a normal control group and a model group were also set up, with a volume of 3 mL per well. After 1 d of treatment at 28° C., the zebrafish in each experimental group were stained with AO in the dark for 30 min and washed 3 times with standard dilution water. 10 zebrafish were randomly selected from each experimental group and photographed under a fluorescence microscope. The data were analyzed and collected using Image J software. The fluorescence intensity of ocular apoptotic cells of the zebrafish was statistically analyzed. The anti-blue light eye protection efficacy of guaijaverin was evaluated based on the statistical analysis results of the above indicators. The statistical result was expressed as mean±SE.

CC1=C[C@H](O)CC(C)(C)[C@H]1/C=C/C(C)=C/C=C/C(C)=C/C=C/C=C(C)/C=C/C=C(C)/C=C/C1=C(C)C[C@@H](O)CC1(C)C [Lutein, lutein, reference compound]
Fluorescence intensity of ocular apoptotic cells (pixel, mean ± SE): 21751 ± 2993 pixel
